According to patent publication US10913983B2, “Sensitivity markers and uses for CDK7 inhibitors in breast cancers” (UNIVERSITY OF SOUTH CAROLINA, priority 2017, dated 2021):
Read-outs that look alike come from different tables or passages of the source.

Experiments:
MDA-MB-468 cells = conditions: fold change in gene expression, 250 nM THZ1; cited from earlier work
T47D [1] = conditions: fold change in gene expression, THZ1; cited from earlier work
ZR751 = conditions: fold change in gene expression, THZ1; cited from earlier work
[2] = test system: panel of breast cancer cell lines; experiment: Cell proliferation MTT assay, cell line panel; format: cell-based
Procedure: (§1) Cells were seeded in 12-well plates at densities ranging from 10000-30000 cells/well and after 24 hours cells were treated with 10, 40 and 100 nM THZ1 in triplicate. After 7 days the cells were imaged using Zeiss Axiovert 200 microscope using a 20× objective lens. Additionally, cells were plated in 96-well plates at a density of 2000 cells/well and after 24 hours treated with 0-10 μM THZ1. After 2 and 7 days the growth of the cells was measured by MTT assay.
(§2) All results were presented as mean±standard deviation of 4-8 parallel assessments. Similar results were obtained from a minimum of two independent experiments. […] Densitometry was performed on duplicate immunoblots using ImageLab software (Biorad) and normalized to tubulin loading controls and then correlated with the THZ1 IC50 values of each cell line. Statistical analyses were performed using SPSS 18.0 (SPSS Inc). Bi-variant scatter graphs and Spearman rank analyses were performed to evaluate associations between protein levels, mRNA and response to inhibition. IC50 values were calculated for MTT assays using CompuSyn software.
To investigate the effect of CDK7 inhibition in a time and dose dependent manner, an extended panel of 11 breast cancer cell lines were screened for response to THZ1 after 2 and 7 days of treatment.

[3] = test system: serum starved SKBR3 cells; experiment: EGF stimulation; format: cell-based; conditions: 100 ng/ml EGF with 250 nM THZ1, 6 hours
Procedure: SKBR3 cells were seeded into duplicate 6-well plates and allowed to grow until 80% confluent. The cells were then washed with PBS and the media was replaced with serum-free media overnight. After serum starvation the cells were treated with 100 ng/ml EGF with or without 250 nM THZ1 for 6 hours then lysates were collected for both RNA and protein analysis.

SKBR3 = experiment: Cell proliferation MTT assay; format: cell-based
Procedure: as §1, §2

ZR-75-1 = experiment: Cell proliferation MTT assay; format: cell-based
Procedure: as §1, §2

T47D [4] = experiment: Cell proliferation MTT assay; format: cell-based
Procedure: as §1, §2

HCC1954 = experiment: Cell proliferation MTT assay; format: cell-based
Procedure: as §1, §2

JIMT-1 = experiment: Cell proliferation MTT assay; format: cell-based; conditions: for IC50: MTT
Procedure: as §1, §2

BT474 = experiment: Cell proliferation MTT assay; format: cell-based
Procedure: as §1, §2

BT549 = experiment: Cell proliferation MTT assay; format: cell-based
Procedure: as §1, §2

MDA-MB-231 = experiment: Cell proliferation MTT assay; format: cell-based
Procedure: as §1, §2

MCF7 = experiment: Cell proliferation MTT assay; format: cell-based
Procedure: as §1, §2

MDA-MB-453 = experiment: Cell proliferation MTT assay; format: cell-based
Procedure: as §1, §2

MDA-MB-361 = experiment: Cell proliferation MTT assay; format: cell-based
Procedure: as §1, §2

HCC1937 = experiment: Cell proliferation MTT assay; format: cell-based
Procedure: as §1, §2

CN(C)C/C=C/C(=O)Nc1ccc(C(=O)Nc2cccc(Nc3ncc(Cl)c(-c4c[nH]c5ccccc45)n3)c2)cc1 [THZ1]
BAMBI 468 FC (MDA-MB-468 cells): −3.8 | CDKN1B 468 FC (MDA-MB-468 cells): −4.11 | CITED2 468 FC (MDA-MB-468 cells): −4.53 | CYR61 468 FC (MDA-MB-468 cells): −4.82 | DKK1 468 FC (MDA-MB-468 cells): −4.7 | E2F8 468 FC (MDA-MB-468 cells): −4.01 | ELF3 468 FC (MDA-MB-468 cells): −3.88 | FADD 468 FC (MDA-MB-468 cells): −3.93 | FBXO5 468 FC (MDA-MB-468 cells): −4.19 | MARS2 468 FC (MDA-MB-468 cells): −4.04 | MOCS3 468 FC (MDA-MB-468 cells): −3.84 | MYC 468 FC (MDA-MB-468 cells): −4.64 | NEDD9 468 FC (MDA-MB-468 cells): −4.03 | PHLDA1 468 FC (MDA-MB-468 cells): −3.71 | PIM3 468 FC (MDA-MB-468 cells): −4.05 | PLK2 468 FC (MDA-MB-468 cells): −3.99 | TRIB1 468 FC (MDA-MB-468 cells): −3.69 | WEE1 468 FC (MDA-MB-468 cells): −3.69 | ZNF217 468 FC (MDA-MB-468 cells): −3.77 | ZNF627 468 FC (MDA-MB-468 cells): −3.68 | BAMBI T47D FC (T47D [1]): −1.74 | CDKN1B T47D FC (T47D [1]): −2.3 | CITED2 T47D FC (T47D [1]): −2.71 | CYR61 T47D FC (T47D [1]): −1.96 | DKK1 T47D FC (T47D [1]): −1.09 | E2F8 T47D FC (T47D [1]): −4.01 | ELF3 T47D FC (T47D [1]): −1.22 | FADD T47D FC (T47D [1]): −3.29 | FBXO5 T47D FC (T47D [1]): −2.65 | MARS2 T47D FC (T47D [1]): −2.3 | MOCS3 T47D FC (T47D [1]): −3.86 | MYC T47D FC (T47D [1]): −2.68 | NEDD9 T47D FC (T47D [1]): −3.32 | PHLDA1 T47D FC (T47D [1]): −3.81 | PIM3 T47D FC (T47D [1]): −2.54 | PLK2 T47D FC (T47D [1]): −2.48 | TRIB1 T47D FC (T47D [1]): −2.31 | WEE1 T47D FC (T47D [1]): −1.96 | ZNF217 T47D FC (T47D [1]): −2.77 | ZNF627 T47D FC (T47D [1]): −2.75 | BAMBI ZR751 FC (ZR751): −3.77 | CDKN1B ZR751 FC (ZR751): −2.57 | CITED2 ZR751 FC (ZR751): −2.64 | CYR61 ZR751 FC (ZR751): −1.81 | DKK1 ZR751 FC (ZR751): −4.15 | E2F8 ZR751 FC (ZR751): −4.01 | ELF3 ZR751 FC (ZR751): −1.65 | FADD ZR751 FC (ZR751): −4.12 | FBXO5 ZR751 FC (ZR751): −3.01 | MARS2 ZR751 FC (ZR751): −3.75 | MOCS3 ZR751 FC (ZR751): −4.1 | MYC ZR751 FC (ZR751): −2.98 | NEDD9 ZR751 FC (ZR751): −2.68 | PHLDA1 ZR751 FC (ZR751): −2.55 | PIM3 ZR751 FC (ZR751): −3.96 | PLK2 ZR751 FC (ZR751): −3.04 | TRIB1 ZR751 FC (ZR751): −3.54 | WEE1 ZR751 FC (ZR751): −3.25 | ZNF217 ZR751 FC (ZR751): −4.13 | ZNF627 ZR751 FC (ZR751): −3.38 | difference in sensitivity determined by IC50 ([2]; most sensitive cell line SKBR3 vs least sensitive cell line JIMT-1): 25 fold | IC50 ([2]; two-day treatment, read-out: IC50 values of most cell lines): 0.1 to 0.3 µM | EGF induction of CITED2 expression (mRNA) [3]: prevented | EGF induction of mRNA expression of EGFR, MYC, CDKN1B, PLK2 and FOXC1 [3]: prevented | EGF-induced increase of CITED2 protein [3]: prevented | IC50 (SKBR3; SKBR3, 2 days, read-out: 2 day IC50): 0.023 µM | IC50 (SKBR3; SKBR3, 7 days, read-out: 7 day IC50): 0.009 µM | IC50 (ZR-75-1; ZR-75-1, 2 days, read-out: 2 day IC50): 0.286 µM | IC50 (ZR-75-1; ZR-75-1, 7 days, read-out: 7 day IC50): 0.05 µM | IC50 (T47D [4]; 2 days, read-out: 2 day IC50): 0.089 µM | IC50 (T47D [4]; 7 days, read-out: 7 day IC50): 0.014 µM | IC50 (HCC1954; HCC1954, 2 days, read-out: 2 day IC50): 0.158 µM | IC50 (HCC1954; HCC1954, 7 days, read-out: 7 day IC50): 0.036 µM | IC50 (JIMT-1; JIMT-1, 2 days, read-out: 2 day IC50): 0.289 µM | IC50 (JIMT-1; JIMT-1, 7 days, read-out: 7 day IC50): 0.087 µM | response to low nanomolar concentrations (JIMT-1; JIMT-1, <100 nM, 7 days of treatment): lack of significant response | IC50 (BT474; BT474, 2 days, read-out: 2 day IC50): 0.49 µM | IC50 (BT474; BT474, 7 days, read-out: 7 day IC50): 0.027 µM | IC50 (BT549; BT549, 2 days, read-out: 2 day IC50): 0.017 µM | IC50 (BT549; BT549, 7 days, read-out: 7 day IC50): 0.008 µM | IC50 (MDA-MB-231; MDA-MB-231, 2 days, read-out: 2 day IC50): 0.159 µM | IC50 (MDA-MB-231; MDA-MB-231, 7 days, read-out: 7 day IC50): 0.036 µM | IC50 (MCF7; MCF7, 2 days, read-out: 2 day IC50): 0.032 µM | IC50 (MCF7; MCF7, 7 days, read-out: 7 day IC50): 0.059 µM | IC50 (MDA-MB-453; MDA-MB-453, 2 days, read-out: 2 day IC50): 0.133 µM | IC50 (MDA-MB-453; MDA-MB-453, 7 days, read-out: 7 day IC50): 0.012 µM | IC50 (MDA-MB-361; MDA-MB-361, 2 days, read-out: 2 day IC50): 0.133 µM | IC50 (MDA-MB-361; MDA-MB-361, 7 days, read-out: 7 day IC50): 0.027 µM | IC50 (HCC1937; HCC1937, 2 days, read-out: 2 day IC50): 0.094 µM | IC50 (HCC1937; HCC1937, 7 days, read-out: 7 day IC50): 0.024 µM
